Consider 14 compounds from ChEMBL document CHEMBL1156605, “Discovery of dihydroquinoxalinone acetamides containing bicyclic amines as potent Bradykinin B1 receptor antagonists” (Bioorg Med Chem Lett, 2008).

Data set [1] concerns the target T1, B1 bradykinin receptor (Homo sapiens, UniProt P46663).
T1 sequence (P46663 whole entry): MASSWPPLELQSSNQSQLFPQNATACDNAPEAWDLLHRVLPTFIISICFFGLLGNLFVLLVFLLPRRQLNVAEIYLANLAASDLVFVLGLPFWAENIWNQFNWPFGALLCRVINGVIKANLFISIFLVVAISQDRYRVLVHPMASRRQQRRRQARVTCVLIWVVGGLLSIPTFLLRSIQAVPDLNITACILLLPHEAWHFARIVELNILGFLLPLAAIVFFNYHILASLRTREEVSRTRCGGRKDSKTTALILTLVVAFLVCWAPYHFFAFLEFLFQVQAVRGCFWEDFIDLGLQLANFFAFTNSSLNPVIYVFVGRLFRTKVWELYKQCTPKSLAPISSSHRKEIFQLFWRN
Put plainly: Antagonist activity at human bradykinin B1 receptor expressed in CHO-D-/aequorin cells. Type of data set: functional, cell-based.

Data set [2] can be described thus: Metabolic stability in human liver microsomes. It counts as ADME, Microsome. Conditions: read-out: Stability. (Liver microsomes are a subcellular fraction often used to study metabolism.)
In data set [3] the target is T1, B1 bradykinin receptor. The experiment in a line: Displacement of [3H]DAK from human bradykinin B1 receptor expressed in CHO-D-/aequorin cells by rapid filtration technique. Type of data set: cell-based. Background: Displacement assays read how much labelled ligand stays bound in the presence of the test substance.

Take `O=C(C[C@@H]1C(=O)Nc2ccccc2N1S(=O)(=O)c1ccc(Cl)c(Cl)c1)NCCc1ccc(C2=NCCN2)cc1`: the half-inhibitory concentration (IC50) (in general, the point on the concentration scale where inhibition reaches its midpoint) against B1 bradykinin receptor [1] was found to be 0.18 nM.
With `CC(C)CNCc1ccc2c(c1)OCC[C@H]2NC(=O)C[C@@H]1C(=O)Nc2ccccc2N1S(=O)(=O)c1ccc(Cl)c(Cl)c1`, the microsomal CLint in data set [2] worked out at 264 µL/min/mg.
For `Cc1ccc(S(=O)(=O)N2c3ccccc3NC(=O)[C@H]2CC(=O)N[C@@H]2CCOc3cc(CN4CCCCC4)ccc32)cc1`, in data set [2], the microsomal CLint came to 128 µL/min/mg.
As to `O=C(C[C@@H]1C(=O)Nc2ccccc2N1S(=O)(=O)c1ccc(Cl)c(Cl)c1)N[C@@H]1CCOc2cc(CN3CCCCC3)ccc21`, the microsomal CLint in data set [2] came to 389 µL/min/mg.
`CC(C)NCc1ccc2c(c1)OCC[C@H]2NC(=O)C[C@@H]1C(=O)Nc2ccccc2N1S(=O)(=O)c1ccc(Cl)c(Cl)c1` registered a 50% inhibitory concentration (IC50) against B1 bradykinin receptor [1] of 0.86 nM. In addition, the Ki (usually a measure of affinity in units of concentration, obtained from inhibition or displacement) on B1 bradykinin receptor [3] was 0.7 nM. In data set [2], the microsomal CLint is 156 µL/min/mg.
On to `NCc1ccc2c(c1)OCC[C@H]2NC(=O)C[C@@H]1C(=O)Nc2ccccc2N1S(=O)(=O)c1ccc(Cl)c(Cl)c1`, for which, in data set [2], the microsomal CLint came out at 127 µL/min/mg.
On the same count and under the same terms, to `O=C(C[C@@H]1C(=O)Nc2ccccc2N1S(=O)(=O)c1ccc(Cl)c(Cl)c1)N[C@@H]1CCOc2cc(CO)ccc21` belongs 264 µL/min/mg.
With `O=Cc1ccc2c(c1)OCC[C@H]2NC(=O)C[C@@H]1C(=O)Nc2ccccc2N1S(=O)(=O)c1ccc(Cl)c(Cl)c1`, the microsomal CLint in data set [2] is 407 µL/min/mg.
`COc1ccccc1NC(=O)CC1C(=O)Nc2ccccc2N1S(=O)(=O)c1c(C)cc(C)cc1C` (stereo unspecified): the IC50 against B1 bradykinin receptor [1] is above 40000 nM. This compound showed an inhibition constant (Ki) on B1 bradykinin receptor [3] of 500 nM.
`O=C(C[C@@H]1C(=O)Nc2ccccc2N1S(=O)(=O)c1ccccc1)N[C@@H]1CCOc2cc(CN3CCCCC3)ccc21`: in data set [2], the microsomal CLint turned out to be 76 µL/min/mg.
Still for that read-out and setting: to `CNCc1ccc2c(c1)OCC[C@H]2NC(=O)C[C@@H]1C(=O)Nc2ccccc2N1S(=O)(=O)c1ccc(Cl)c(Cl)c1` belongs 107 µL/min/mg.
Still for that read-out and setting: to `CN(C)Cc1ccc2c(c1)OCC[C@H]2NC(=O)C[C@@H]1C(=O)Nc2ccccc2N1S(=O)(=O)c1ccc(Cl)c(Cl)c1` belongs 208 µL/min/mg.
Consider `CC(C)(C)NCc1ccc2c(c1)OCC[C@H]2NC(=O)C[C@@H]1C(=O)Nc2ccccc2N1S(=O)(=O)c1ccc(Cl)c(Cl)c1`, for which, at B1 bradykinin receptor [1], the IC50 worked out at 1.7 nM. The inhibition constant (Ki) on B1 bradykinin receptor [3] was found to be 1.1 nM. For the same compound, the microsomal CLint in data set [2] came out at 174 µL/min/mg.
`CC(C)(C)NCc1ccc2c(c1)OCC[C@H]2NC(=O)C[C@@H]1C(=O)Nc2ccccc2N1S(=O)(=O)c1ccccc1` had an IC50 against B1 bradykinin receptor [1] of 0.37 nM. On B1 bradykinin receptor [3], this compound showed an inhibition constant (Ki) of 1.8 nM. For the same compound, the microsomal CLint in data set [2] worked out at 26 µL/min/mg.
